According to PMC6010102, “N-thioalkylcarbazoles derivatives as new anti-proliferative agents: synthesis, characterisation and molecular mechanism evaluation” (Journal of Enzyme Inhibition and Medicinal Chemistry, 2018):

Test system: caspase-8
Assay: Caspase-Glo assay, caspase-8
Format: cell-based, human
Conditions: HeLa cells, concentration equal to IC50, 24 h
Procedure: Caspases-3/7, -8 and -9 activities were measured with the Caspase-Glo Assay, according to the guidelines of manufacturer (Caspase-Glo® 3/7, 8 and 9 Assay Systems, Promega Corporation, Madison, WI) as described in Iacopetta et al.[43].

- caspase-8 activity: no increase of caspase-8 activity
Compound: Cc1ccc(C)c2c1c1cc(Br)ccc1n2CCCCCCCS [5c, 7-(6-Bromo-1,4-dimethyl-9H-carbazol-9-yl)-heptane-1-thiol]
